Values quoted from earlier work as cited in US20140018386A1, “LAQUINIMOD FORMULATIONS WITHOUT ALKALIZING AGENT” (Teva Pharmaceutical Industries, Ltd., priority 2012, published 2014).

Legend:
[1] = in vivo
[2] = test system: acute experimental autoimmune encephalomyelitis (aEAE) model; settings: in vivo
[3] = test system: various experimental inflammatory/autoimmune animal models; settings: EAE, DSS colitis, NOD mice, EAN, SLE, lupus nephritis, lupus arthritis, Crohn's Disease, Rheumatoid arthritis

| Oral bioavailability [1] | Compound | Effect in the aEAE model [2] | Development of active MRI lesions (relapsing MS) | Therapeutic effect [3] |
| --- | --- | --- | --- | --- |
| high oral bioavailability | CCN(C(=O)c1c(O)c2c(Cl)cccc2n(C)c1=O)c1ccccc1 [Laquinimod sodium] | – | – | – |
| – | CCN(C(=O)c1c(O)c2c(Cl)cccc2n(C)c1=O)c1ccccc1 [Laquinimod, N-ethyl-N-phenyl-1,2-dihydro-4-hydroxy-5-chloro-1-methyl-2-oxoquinoline-3-carboxamide] | effective | can reduce development of active MRI lesions | demonstrated therapeutic effect |
